According to a flash point compilation (Sun et al. 2020):

Q: With `ClCCCBr` [1-bromo-3-chloropropane] as the compound, how does the flash point read?
A: 57.00 °C

Q: With `Cc1cccc(Br)c1` [1-bromo-3-methylbenzene] as the compound, how does the flash point read?
A: 60.00 °C

Q: For `Fc1ccc(Br)cc1` [1-bromo-4-fluorobenzene], which flash point is on record?
A: 60.00 °C

Q: For `CC(Br)c1ccccc1` (stereo unspecified) [1-bromoethylbenzene], which flash point is on record?
A: 96.00 °C

Q: Which flash point does the source give for `CCCCOCC(C)O` (stereo unspecified) [1-butoxypropan-2-ol] here?
A: 63.00 °C

Q: With `FC(F)=C(F)Cl` [1-chloro-1,2,2-trifluoroethene] as the compound, how does the flash point read?
A: -27.00 °C

Q: With `CCC(Cl)[N+](=O)[O-]` (stereo unspecified) [1-chloro-1-nitropropane] as the compound, how does the flash point read?
A: 62.00 °C

Q: Which flash point does the source give for `O=[N+]([O-])c1ccc(Cl)c([N+](=O)[O-])c1` [1-chloro-2,4-dinitrobenzene] here?
A: 194.00 °C

Q: Which flash point does the source give for `ClCc1ccccc1Cl` [1-chloro-2-(chloromethyl)benzene] here?
A: 91.00 °C

Q: With `C=Cc1ccccc1Cl` [1-chloro-2-ethenylbenzene] as the compound, how does the flash point read?
A: 59.00 °C

Q: For `CCCCCCl` [1-chloropentane], which flash point is on record?
A: 1.00 °C

Q: For `CC(O)CCl` (stereo unspecified) [1-chloropropan-2-ol], which flash point is on record?
A: 52.00 °C

Q: With `C=COCCOC` [1-ethenoxy-2-methoxyethane] as the compound, how does the flash point read?
A: 18.00 °C

Q: For `C=COCCCC` [1-ethenoxybutane], which flash point is on record?
A: -9.00 °C

Q: With `C=Cc1cccc(C)c1` [1-ethenyl-3-methylbenzene] as the compound, how does the flash point read?
A: 60.00 °C

Q: Which flash point does the source give for `C=Cc1ccc(C)cc1` [1-ethenyl-4-methylbenzene] here?
A: 52.00 °C

Q: For `CCOCCOCCOCC` [1-ethoxy-2-(2-ethoxyethoxy)ethane], which flash point is on record?
A: 54.00 °C

Q: With `CCCCOCC` [1-ethoxybutane] as the compound, how does the flash point read?
A: 4.00 °C

Q: For `CCOCC(C)O` (stereo unspecified) [1-ethoxypropan-2-ol], which flash point is on record?
A: 40.00 °C

Q: Which flash point does the source give for `CCOCC(C)OC(C)=O` (stereo unspecified) [1-ethoxypropan-2-yl acetate] here?
A: 53.00 °C

Q: Which flash point does the source give for `Cc1ccccc1F` [1-fluoro-2-methylbenzene] here?
A: 13.00 °C

Q: For `C=C(C)C(=O)OC(C)CO` (stereo unspecified) [1-hydroxypropan-2-yl 2-methylprop-2-enoate], which flash point is on record?
A: 121.00 °C

Q: With `O=[N+]([O-])c1cccc(I)c1` [1-iodo-3-nitrobenzene] as the compound, how does the flash point read?
A: 72.00 °C

Q: Which flash point does the source give for `O=C=Nc1ccc(Cc2ccc(N=C=O)cc2)cc1` [1-isocyanato-4-[(4-isocyanatophenyl)methyl]benzene] here?
A: 218.00 °C

Q: For `CCCCN=C=O` [1-isocyanatobutane], which flash point is on record?
A: 19.00 °C

Q: Which flash point does the source give for `COCCOCCOCCOC` [1-methoxy-2-[2-(2-methoxyethoxy)ethoxy]ethane] here?
A: 111.00 °C

Q: For `COCC(C)O` (stereo unspecified) [1-methoxypropan-2-ol], which flash point is on record?
A: 36.00 °C

Q: With `CC1(C2CCC3(C)OC3C2)CO1` (stereo unspecified) [1-methyl-4-(2-methyloxiran-2-yl)-7-oxabicyclo[4.1.0]heptane] as the compound, how does the flash point read?
A: 118.00 °C

Q: Which flash point does the source give for `Cc1ccc([N+](=O)[O-])cc1` [1-methyl-4-nitrobenzene] here?
A: 106.00 °C

Q: Which flash point does the source give for `C=C(C)C1CC=C(C)CC1` (stereo unspecified) [1-methyl-4-prop-1-en-2-ylcyclohexene] here?
A: 46.00 °C

Q: With `Cc1ccc(C(C)C)cc1` [1-methyl-4-propan-2-ylbenzene] as the compound, how does the flash point read?
A: 47.00 °C

Q: Which flash point does the source give for `CC1=CCC(=C(C)C)CC1` [1-methyl-4-propan-2-ylidenecyclohexene] here?
A: 64.00 °C

Q: For `CC1(O)CCCCC1` [1-methylcyclohexan-1-ol], which flash point is on record?
A: 67.00 °C

Q: Which flash point does the source give for `CN1CCCC1=O` [1-methylpyrrolidin-2-one] here?
A: 96.00 °C

Q: For `O=[N+]([O-])c1ccccc1-c1ccccc1` [1-nitro-2-phenylbenzene], which flash point is on record?
A: 143.00 °C

Q: Which flash point does the source give for `O=[N+]([O-])c1cccc(C(F)(F)F)c1` [1-nitro-3-(trifluoromethyl)benzene] here?
A: 101.00 °C

Q: For `CC[N+](=O)[O-]` [1-nitroethane], which flash point is on record?
A: 41.00 °C

Q: Which flash point does the source give for `CC(N)c1ccccc1` (stereo unspecified) [1-phenylethanamine] here?
A: 79.00 °C

Q: For `CC(O)c1ccccc1` (stereo unspecified) [1-phenylethanol], which flash point is on record?
A: 85.00 °C

Q: For `CC(N)Cc1ccccc1` (stereo unspecified) [1-phenylpropan-2-amine], which flash point is on record?
A: 27.00 °C

Q: For `CCCOCCC` [1-propoxypropane], which flash point is on record?
A: 21.00 °C

Q: Which flash point does the source give for `Cc1ccc(C(C)(C)C)cc1` [1-tert-butyl-4-methylbenzene] here?
A: 58.00 °C

Q: For `c1c[nH]cn1` [1H-imidazole], which flash point is on record?
A: 145.00 °C

Q: With `c1cc[nH]c1` [1H-pyrrole] as the compound, how does the flash point read?
A: 39.00 °C

Q: For `N#CC(Cl)(Cl)Cl` [2,2,2-trichloroacetonitrile], which flash point is on record?
A: 74.00 °C

Q: With `CC(C)C(O)C(C)(C)CO` (stereo unspecified) [2,2,4-trimethylpentane-1,3-diol] as the compound, how does the flash point read?
A: 113.00 °C

Q: For `O=CC(Cl)Cl` [2,2-dichloroacetaldehyde], which flash point is on record?
A: 60.00 °C

Q: For `O=C(Cl)C(Cl)Cl` [2,2-dichloroacetyl chloride], which flash point is on record?
A: 66.00 °C

Q: With `OCC(Cl)Cl` [2,2-dichloroethanol] as the compound, how does the flash point read?
A: 78.00 °C

Q: For `C=C1C2CCC(C2)C1(C)C` (stereo unspecified) [2,2-dimethyl-3-methylidenebicyclo[2.2.1]heptane], which flash point is on record?
A: 33.00 °C

Q: With `Oc1c(Cl)cc(Cl)c(Cl)c1Cl` [2,3,4,6-tetrachlorophenol] as the compound, how does the flash point read?
A: 100.00 °C

Q: For `CCCCCCCC(=O)OCC(COC(=O)CCCCCCC)OC(=O)CCCCCCC` [2,3-di(octanoyloxy)propyl octanoate], which flash point is on record?
A: 177.00 °C

Q: With `CC(=O)OCC(COC(C)=O)OC(C)=O` [2,3-diacetyloxypropyl acetate] as the compound, how does the flash point read?
A: 138.00 °C

Q: Which flash point does the source give for `C=C(C)C(=O)OCC(Br)CBr` (stereo unspecified) [2,3-dibromopropyl 2-methylprop-2-enoate] here?
A: 59.00 °C

Q: With `O=CC(Cl)=C(Cl)C(=O)O` [2,3-dichloro-4-oxobut-2-enoic acid] as the compound, how does the flash point read?
A: 100.00 °C

Q: With `C=C(Cl)CCl` [2,3-dichloroprop-1-ene] as the compound, how does the flash point read?
A: 10.00 °C

Q: Which flash point does the source give for `OCC(Cl)CCl` (stereo unspecified) [2,3-dichloropropan-1-ol] here?
A: 91.00 °C

Q: Which flash point does the source give for `CC(C)C(C)C` [2,3-dimethylbutane] here?
A: -29.00 °C

Q: For `CC1OC1C` (stereo unspecified) [2,3-dimethyloxirane], which flash point is on record?
A: -18.00 °C

Q: With `CCC(C)C(C)CO` (stereo unspecified) [2,3-dimethylpentan-1-ol] as the compound, how does the flash point read?
A: 61.00 °C

Q: With `C=C(C)CC(C)(C)C` [2,4,4-trimethylpent-1-ene] as the compound, how does the flash point read?
A: 2.00 °C

Q: Which flash point does the source give for `Cc1cc(C)nc(C)c1` [2,4,6-trimethylpyridine] here?
A: 58.00 °C

Q: With `CN(C)Cc1cc(CN(C)C)c(O)c(CN(C)C)c1` [2,4,6-tris[(dimethylamino)methyl]phenol] as the compound, how does the flash point read?
A: 124.00 °C

Q: For `CCCCCCCCCc1ccc(O)c(CCCCCCCCC)c1` [2,4-di(nonyl)phenol], which flash point is on record?
A: 127.00 °C

Q: For `Oc1ccc(Br)cc1Br` [2,4-dibromophenol], which flash point is on record?
A: 113.00 °C

Q: With `O=Cc1ccc(Cl)cc1Cl` [2,4-dichlorobenzaldehyde] as the compound, how does the flash point read?
A: 135.00 °C

Q: With `Cc1ccc(N)c(C)c1` [2,4-dimethylaniline] as the compound, how does the flash point read?
A: 96.00 °C

Q: For `Nc1cc(Cl)ccc1Cl` [2,5-dichloroaniline], which flash point is on record?
A: 113.00 °C

Q: Which flash point does the source give for `Cc1ccc(C)o1` [2,5-dimethylfuran] here?
A: -1.00 °C

Q: Which flash point does the source give for `CC1CCC2CC1C2(C)C` (stereo unspecified) [2,6,6-trimethylbicyclo[3.1.1]heptane] here?
A: 40.00 °C

Q: With `O=Cc1c(Cl)cccc1Cl` [2,6-dichlorobenzaldehyde] as the compound, how does the flash point read?
A: 135.00 °C
